Assay results: US8133491B1, “Compositions and methods for treatment of hyperplastic disorders” (priority 2009, dated 2012)

Tests used:
prostate [1] = settings: rat, in vivo; cited from earlier work
ventral prostate [2] = test: TUNEL stain for apoptosis in prostate sections; set-up: species or system Sprague-Dawley rats; settings: rat, in vivo
Procedure: (§1) The fixed prostates were embedded in paraffin and sectioned at a thickness of 4 microns. Sections were stained with hematoxylin and eosin and analyzed for morphology. Immunohistochemical analysis was performed on prostate sections for evidence of apoptosis with TUNEL stain (terminal deoxynucleotidyl-mediated deoxyuridine triphosphate nick end labeling) using a commercially available kit (GenScript Corporation, Piscataway, N.J.), and for cellular proliferation with PCNA stain (proliferating cell nuclear antigen) using a commercially available kit (Invitrogen Corporation, Camarillo, Calif.). A stained slide from each animal was randomly assigned a number in a blind fashion. Under 400× magnification, four random areas of the ventral prostate from each animal were examined and the total numbers of stained and unstained cells were counted in the entire field. This was done for both TUNEL and PCNA stained slides for each animal. The mean number of stained and unstained cells was determined for each animal.

prostate [3] = test: Histology (hematoxylin and eosin) of injected rat prostates; set-up: species or system Sprague-Dawley rats; settings: in vivo
Procedure: (§2) Rats were anesthetized with isoflurane gas. The hair was shaved and the incision region was scrubbed with Betadine. A lower abdominal midline incision was made providing exposure to the bladder and prostate. 0.1 mL of toxin or saline was injected into each right and left ventral lobe using a 30-gauge needle. The abdominal wall and skin were then closed in two layers. After 2 weeks the animals were sacrificed by an overdose of sodium Pentobarbital (200 mg/kg i.p.) The prostates were removed en bloc along with the bladder and urethra. The prostates were then carefully dissected from the bladder neck and urethra, weighed and fixed in 10% phosphate buffered formalin.
The fixed prostates were embedded in paraffin and sectioned at a thickness of 4 microns. Sections were stained with hematoxylin and eosin and analyzed for morphology. […] Under 400× magnification, four random areas of the ventral prostate from each animal were examined and the total numbers of stained and unstained cells were counted in the entire field. […] The mean number of stained and unstained cells was determined for each animal.

prostate [4] = test: Intraprostatic injection in rats: prostate weight / size; set-up: species or system Sprague-Dawley rats; settings: rat, in vivo
[5] = Body weight and complications after intraprostatic injection; set-up: species or system Sprague-Dawley rats; settings: rat, in vivo
Source text: Eighteen adult male Sprague-Dawley rats (420-560 g) were used in this study. The animals were housed in the animal care center under controlled lighting conditions (lights on 6 AM-6 PM), with food and water always available. The animals were monitored for behavior, food and water intake, and weight. Subsequent experiments were approved by the University of Toledo's Institutional Animal Care and Use Committee.
as §2

ventral prostate [6] = test: PCNA stain for cellular proliferation in prostate sections; set-up: species or system Sprague-Dawley rats; settings: rat, in vivo
Procedure: as §1

Botulinum toxin type A [BTA]
prostatic weight (Doggweiler et al.) (prostate [1]): decrease in prostatic weight
TUNEL Assay # of Apoptotic Cells Mean (ventral prostate [2]): 211.1
number of apoptotic cells, TUNEL staining (in words) (ventral prostate [2]): significant increase in the number of apoptotic cells
histology of prostate (in words) (prostate [3]): prostatic atrophy of the glandular component with flattening of the epithelial lining
Prostate Wt (grams) Mean (prostate [4]): 2.627 grams
Prostate Wt /100 g Body Wt Mean (prostate [4]): 0.586
prostate size / weight (in words) (prostate [4]): did not show a statistically significant decrease in prostatic weight
2 wks Post-Injection Wt (grams) Mean [5]: 449 grams
Change in Body Weight Mean [5]: −51.667
Pre-Injection Wt (grams) Mean [5]: 501 grams
body weight (in words) [5]: significant loss in body weight
PCNA Assay # of Proliferating Cells Mean (ventral prostate [6]): 26.2
cellular proliferation, PCNA staining (in words) (ventral prostate [6]): significant increase in cellular proliferation
